The text below walks through data of patent US20060148754A1, “Composition for treating and/or preventing dysfunctions associated with type 2 diabetes mellitus and insulin resistance” (priority 2003, published 2006).

The test can be described thus: Acetate and glycerol tracer infusion study with ingestion of lactulose or saline in obese, insulin resistant subjects. The test is classed as in vivo, human. As to the method: Eight obese and insulin resistant subjects received a primed constant intravenous infusion of [1-^13C]acetate at the rate of 0.50 μmol·kg^−1·min^−1 and of [1,1,2,3,3-^2H5]glycerol at the rate of 0.11 μmol·kg^−1·min^−1 for 9 hours. After 3 hours of tracer infusion, patients ingested 30 g of pure lactulose, or saline solution. Arterialized blood samples were collected regularly.

Regarding `OC[C@H]1O[C@@H](O[C@@H]2[C@@H](CO)OC(O)(CO)[C@H]2O)[C@H](O)[C@@H](O)[C@H]1O` (mixture of isomers) [lactulose], the “plasma acetate concentration, maximum” value (after ingestion of 30 g lactulose, then decreased to baseline) is recorded as “≈ 400 μmol/L”. Moreover, the FFA concentrations result (after ingestion of 30 g lactulose, to 120 min, thereafter increased slowly) is on record as “decreased significantly”. Under “after ingestion of 30 g pure lactulose, eight obese insulin resistant subjects, saline 10.3±2.2, P<0.0001”, this compound came in with an acetate turnover rate of 15.5 ± 2.2 µmol/kg/min. Under “after ingestion of 30 g pure lactulose, saline 3.5±0.3, P≦0.05”, the glycerol turnover is 2.8 ± 0.4 µmol/kg/min.
